These results are taken from US20230020092 (published 2023).

{C6NH2} = C6 amino linker (-C6-NH2)

The nature of this data set: fmoc spps; Rink amide resin (1.0 mmol/g); HATU/DIEA (cyclization). The settings on record: conjugation step, scale 1 mmol, TFA salt.

Regarding “5'-GCT ATT ACC TTA ACC CAG-3' -C6-NH2 (all PMO monomers) (SEQ ID NO: 222) (GCTATTACCTTAACCCAG; all phosphorodiamidate morpholino (PMO), 3' {C6NH2})”, the “final purity method not stated” value was greater than 99%.
